# According to patent publication US9611286B2, “Ruthenium carbon monoxide releasing molecules and uses thereof” (Alfama, Inc., priority 2011, dated 2017):
# Columns and labels:
# P. berghei ANKA GFP [1] = assay: Adjunctive/adjuvant therapy with artesunate after onset of ECM; format: in vivo, C57BL/6 mice; conditions: for parasitemia: AS alone 40 mg/Kg/day i.p. d5-d6
# Protocol: Thus, the inventors decided to test Compound 1 as an adjunctive and adjuvant therapy during the acute phase of ECM. […] Therefore, the inventors assessed the combination of Compound 1 and AS on parasite clearance and clinical recovery from ECM. Two AS and Compound 1 combinations were tested: (i) Adjunctive therapy: AS and Compound 1 were administered concomitantly for 2 days after the onset of CM followed by a 3-day treatment with Compound 1 alone, or (ii) Adjuvant therapy: AS was administered on the first 2 days after CM onset followed by Compound 1 administration for 3 more days.
# (§1) In order to evaluate the clinical presentation of experimental cerebral malaria, a classification was used in clinical stages from 0 to 4 (see, e.g., Bienvenu et al., Acta Trop (2008) 106:104-8; Franklin et al., Proc Natl Acad Sci USA (2011) 108:3689-94). Briefly, stage 0 indicates no detectable clinical symptoms, stage 1, ruffled fur; stage 2, ruffled fur and unbalancing; stage 3, limb paralysis and respiratory distress and stage 4, convulsions, coma or death. The mice were clinically classified before and after the treatment to evaluate the clinical recovery.
# (§2) CORM-2 (Sigma-Aldrich) and Compound 2 were solubilized using 10% dimethyl sulfoxide (DMSO; Sigma-Aldrich) in PBS. CORM-3 and Compound 1 were solubilized in PBS (lx). CORM-2 solution (20 mg/kg of body weight) was administered intravenously (i.v.) according to the chosen schedules. […] As vehicle control, we used a solution of 10% DMSO in PBS administered i.v. The concentrations of CORM-2 used in the present study were based on previous reports (see, e.g., Chen et al. Am. J. Pathol. (2009) 175:422-429; Sun et al., World. J. Gastroenterol. (2008) 14:547-553). Artesunate is presented as a powder of artesunic acid. Artesunate (AS) solution was prepared by dissolving 60 mg of anhydrous artesunic acid in 1 ml of sodium bicarbonate (5%) to form sodium artesunate and then diluted in 5 ml of NaCl (0.9%). An AS solution (i.p.) was administered at 40 mg/Kg/day, as described previously (see, e.g., Bienvenu, Acta Trop (2008) 106:104-108). The AS treatment was started when the infected non-treated mice presented the clinical stage 1 for experimental cerebral malaria.
# [2] = cited from earlier work
# P. berghei ANKA GFP [3] = format: in vivo, C57BL/6 mice; conditions: for hyperparasitemia in protected mice (infected red blood cells): 3 weeks after infection; for effect on parasitemia: treated twice daily days 2-3, observed from about day 5 to day 8 of infection
# Protocol: It has previously been shown that administration of CO by inhalation protects P. berghei ANKA infected C57BL/6 mice from developing ECM (see, e.g., Pamplona et al. Nat Med (2007) 13:703-710). The inventors questioned whether CO-RMs could mimic the protection conferred by CO inhalation in P. berghei ANKA infection. To this end, a known ruthenium CORM, Ru(CO)3Cl2, also referred to herein as CORM-2, was tested on different schedules of treatment and doses in P. berghei ANKA infected C57BL/6 mice (data not shown).
# Red blood cells infected with green fluorescent protein (GFP)-transgenic P. berghei ANKA and P. berghei ANKA was used to infect mice (see, e.g., Franke-Fayard et al. Mol Biochem Parasitol (2004) 137:23-33). Cryopreserved parasites were passed once through C57BL/6 or DBA-2 mice before being used to infect experimental animals. C57BL/6 or DBA-2, 6- to 8-wk-old mice (sex matched in each experiment) were infected by intra-peritoneal (i.p.) injection of 10^6 infected RBCs. The infected mice were monitored daily for clinical symptoms of experimental cerebral malaria (ECM) including hemi- or paraplegia, head deviation, tendency to roll over on stimulation, ataxia and convulsions, or ALI, including dyspnea. Mice showing severe signs of ECM at day 5, 6 or 7 post-infection (p.i.) and ALI between days 7 and 9 were sacrificed. Parasitemia was assessed by flow cytometry for mice infected with GFP-expressing P. berghei ANKA, using tail blood, as previously described (see, e.g., Pamplona et al., Nat Med (2007) 13:703-710). Mean parasitemia is expressed as percentage of infected red blood cells. For mice infected with non-GFP P. berghei parasitemia was assessed daily by microscopic counting of Giemsa-stained thin blood smears. Mean parasitemia is expressed as percentage of infected red blood cells. Survival is expressed as percentage.
# as §1, §2
# Hen Egg White Lysozyme C = target: T1, Hen Egg White Lysozyme C (Gallus gallus, UniProt P00698); assay: Hen egg white lysozyme (HEWL) assay, reactivity with proteins by LC-MS; format: binding; conditions: 10 equiv in H2O, room temperature, 10 minutes and 1 hour
# T1 construct: one corresponding to the mass of native lysozyme (14305=calculated mass); from tissue; host or cells: hen egg white
# T1 sequence (P00698 19-147): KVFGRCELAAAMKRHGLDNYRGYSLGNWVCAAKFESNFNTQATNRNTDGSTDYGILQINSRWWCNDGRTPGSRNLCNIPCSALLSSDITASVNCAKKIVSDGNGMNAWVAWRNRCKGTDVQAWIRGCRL
# Source text: The hen egg white lysozyme (HEWL) assay was used to assess the reactivity of Compound 1 in the presence of proteins (see, e.g., Santos-Silva, T. et al. J Am Chem Soc (2011) 133, 1192-1195). This paper describes the interactions of CORM-3 with plasma proteins. CORM-3 reacts rapidily with proteins, losing chloride ion, glycinate, and one CO ligand. […] It was observed that CORM-3 reacts faster and has a much weaker efficacy than Compound 1 in this ECM treatment.
# Liquid chromatography-mass spectrometry (LC-MS) was performed on a Micromass Quattro API instrument (ESI-TOF-MS) coupled to a Waters Alliance 2795 HPLC using a MassPREP On-Line Desalting Cartridge. […]
# Hen Egg White Lysozyme C (PDB code 3b61; UniProtKB/Swiss-Prot code P00698). […] Quantitative determination of lysozyme-ligand binding in the solution and gas phases by electrospray ionisation mass spectrometry follows Veros et al., Rapid Commun. […] A 50 μL aliquot was analyzed by LC-MS (calculated average isotopic mass of the egg white lysozyme=14305.1).
# Santos-Silva and co-workers previously describe CORM-3's reactivity towards proteins and formation of a Ru(II) dicarbonyl-lysozyme complex (see, e.g., Santos-Silva et al., J. Am. Chem. Soc. (2011) 133:1192-1195). […] 50 μL aliquots were collected and analyzed by LC-MS over the reaction time (10 minutes and 1 hour). […]
# P. falciparum 3D7 = assay: In vitro replication of P. falciparum 3D7; format: cell-based, Plasmodium falciparum; conditions: 48 h
# Protocol: (§3) The data led the inventors to wonder whether Compound 1 could have a direct anti-parasitic effect on P. berghei ANKA and P. falciparum parasites. To this end, the effect of Compound 1 and the anti-malarial chloroquine (CQ) was monitored on the in vitro replication of P. falciparum 3D7 isolate and P. berghei ANKA for 48 h and 24 h, respectively.
# P. berghei ANKA [4] = assay: In vitro replication of P. berghei ANKA; format: cell-based, Plasmodium berghei; conditions: 24 h
# Protocol: as §3
# P. berghei ANKA [5] = assay: Malaria-associated acute lung injury (M-AALI) model; format: in vivo, DBA/2 mice; conditions: i.v. twice daily
# Source text: The M-AALI model, based on the infection of DBA-2 mice with P. berghei ANKA, is characterized by dyspnea, airway obstruction, hypoxemia, pulmonary exudate and elevated VEGF levels in plasma, followed by death between days 7 and 12 after infection.
# Red blood cells infected with green fluorescent protein (GFP)-transgenic P. berghei ANKA and P. berghei ANKA was used to infect mice (see, e.g., Franke-Fayard et al. Mol Biochem Parasitol (2004) 137:23-33). Cryopreserved parasites were passed once through C57BL/6 or DBA-2 mice before being used to infect experimental animals. […] The infected mice were monitored daily for clinical symptoms of experimental cerebral malaria (ECM) including hemi- or paraplegia, head deviation, tendency to roll over on stimulation, ataxia and convulsions, or ALI, including dyspnea. […] Parasitemia was assessed by flow cytometry for mice infected with GFP-expressing P. berghei ANKA, using tail blood, as previously described (see, e.g., Pamplona et al., Nat Med (2007) 13:703-710). Mean parasitemia is expressed as percentage of infected red blood cells. For mice infected with non-GFP P. berghei parasitemia was assessed daily by microscopic counting of Giemsa-stained thin blood smears. Mean parasitemia is expressed as percentage of infected red blood cells. Survival is expressed as percentage. […]
# [6] = Brain histology (hematoxylin and eosin) in ECM; format: in vivo, C57BL/6 mice; conditions: P. berghei ANKA-infected mice
# Protocol: For evaluation of histological features, mice were deeply anesthetized until cessation of breathing when infected control mice presented signs of ECM or ALI. The livers, lungs, and brains were removed and fixed in 10% buffered formalin for 24-72 h. Four-micron sections were cut from paraffin-embedded tissues and stained with hematoxylin and eosin according to standard procedures. Histological analyses were performed on a Leica microscope DM 2500 (Leica Microsystems).
# [7] = Quantification of Ru in tissues (bio-distribution); conditions: non-infected mice, i.v.
# Protocol: Tricarbonyldichloro(methylthiogalactopyranoside) Ru(II) [Ru(CO)3Cl2(Gal-S-Me)], also referred to herein as Compound 1, was prepared by reacting CORM-2 with methylthiogalactopyranoside (Gal-S-Me) as described herein (see FIG. 2a and Materials and Methods section). The bio-distribution of Compound 1 in tissues was assessed by quantifying the levels of Ru and CO in the host by the method of Vreman et al., Anal Biochem (2005) 341:280-9. Liver, kidney, spleen, lung and brain tissues of non-infected mice (NI) were analyzed one hour after administration of Compound 1 and the control molecule, Compound 2 (FIG. 2b). […] The spleen is an organ that plays a crucial role in erythrophagocytosis, process important for red blood cell turnover, and recycling of iron. Erythrocytes are hydrolyzed by splenic macrophages, where the degradation of hemoglobin occurs, haem is release, and is catabolized by heme oxygenase-1 into biliverdin, carbon monoxide and ferrous iron (Fe^2+).
# The tissue samples were weighed and dried at 80° C. overnight followed by 2 or more hours at 120° C. […] The Ru content was analyzed by an inductively coupled plasma-atomic emission spectrometer (ICP-AES) (model Ultima-Horiba Jobin Yvon, Longjumeau, France) using an external Ru standard method.
molecule,measurement,setting,value
"C[C@H]1[C@H](OC(=O)CCC(=O)O)O[C@@H]2O[C@@]3(C)CC[C@H]4[C@H](C)CC[C@@H]1[C@@]24OO3 [AS, Artesunate]",parasitemia,P. berghei ANKA GFP [1]; day 5 post-infection,6.8±0.3%
same,parasitemia,P. berghei ANKA GFP [1]; day 9 post-infection,0.59±0.06%
same,mice that died with ECM,P. berghei ANKA GFP [1]; AS alone d5-d6,82%
same,survival,P. berghei ANKA GFP [1]; AS alone d5-d6,18%
"[C-]#[O+].[C-]#[O+].[C-]#[O+].[C-]#[O+].[C-]#[O+].[C-]#[O+].[Cl][Ru][Cl].[Cl][Ru][Cl] [CORM-2, tricarbonyldichlororuthenium(II) dimer]",COHb levels in blood after in vivo administration,[2],do not elevate the carboxyhemoglobin (COHb) levels
same,hyperparasitemia in protected mice (infected red blood cells),P. berghei ANKA GFP [3],> 30 % infected red blood cells
same,death or symptoms of ECM,P. berghei ANKA GFP [3]; CORM-2 20 mg/kg i.v. twice daily between days 2 and 3 after infection,prevented death or symptoms of ECM in all infected C57BL/6 mice
same,effect on parasitemia,P. berghei ANKA GFP [3],statistically significant delay in parasitemia
"NCC(=O)O.[C-]#[O+].[C-]#[O+].[C-]#[O+].[Cl][Ru] [CORM-3, fac-Ru(CO)3C1(glycinate)]",reactivity with HEWL (adduct formation),Hen Egg White Lysozyme C,reacts faster
same,COHb levels in blood after in vivo administration,[2],do not elevate the carboxyhemoglobin (COHb) levels
same,hyperparasitemia in protected mice (infected red blood cells),P. berghei ANKA GFP [3],> 50 % infected red blood cells
same,mice protected from ECM,"P. berghei ANKA GFP [3]; i.v. twice daily between days 2 and 3 after infection, equimolar to CORM-2 20 mg/kg",50%
same,effect on parasitemia,P. berghei ANKA GFP [3],statistically significant delay in parasitemia
"CS(C)=O.CS(C)=O.CS(C)=O.CS(C)=O.[Cl][Ru][Cl] [Compound 2, Tetrakis(dimethylsulfoxide)dichlororuthenium(II), reference compound]",inhibition of in vitro growth,P. falciparum 3D7,absence of inhibitory effect
same,inhibition of in vitro growth,P. berghei ANKA [4],absence of inhibitory effect
same,mice that died displaying M-AALI symptoms,P. berghei ANKA [5],67%
same,neuropathologic features in brain sections,[6],evidence of microvascular congestion with pRBC and leukocytes and hemorrhagic foci
Tricarbonyldichloro(methylthiogalactopyranoside) Ru(II) [Compound 1],"amount of Ru retained in the liver after the last injection, of the Ru administered in all doses",[7],about 13.7±0.6%
